# Measurements from PMC8248988, “A signal capture and proofreading mechanism for the KDEL-receptor explains selectivity and dynamic range in ER retrieval” (eLife, 2021).
# Assays:
# Format in all cases: cell-based, human
# HeLa S3 cells = experiment: ER secretion assay, xDEL ligand secretion (Western blot for mScarlet)
# Source text: (§1) Figure 1. ER retrieval signal abundance and affinity are not correlated. (a) Sequence logos for ER resident proteins with C-terminal KDEL retrieval signals and variants thereof calculated using frequency or protein abundance ([Itzhak et al., 2017]; [Itzhak et al., 2016]). (b) Combined cellular concentrations of ER resident proteins with canonical KDEL, RDEL, and HDEL retrieval sequences in HeLa cells and mouse brain. (c) Competition binding assays for [^3H]-TAEHDEL and unlabelled TAEKDEL, TAERDEL, and TAEHDEL to the KDEL receptor. IC50 values for the competing peptides were used to calculate the apparent KDwith the Cheng-Prusoff equation ([Cheng and Prusoff, 1973]). (d) Endogenous KDEL receptor redistribution was measured in COS-7 cells in the absence (-ligand) or presence of K/R/H/A/DDEL (mScarlet-xDEL^sec). TGN46 was used as a Golgi marker. Scale bar is 10 µm. (e) The mean difference for K/R/H/A/DDEL comparisons against the shared no ligand control are shown as Cummings estimation plots. The individual data points for the fraction of KDEL receptor fluorescence in the Golgi are plotted on the upper axes with sample sizes and p values. Figure 1—source data 1. Source data for the ligand-induced KDELR receptor retrieval assays in Figure 1e. Figure 1—figure supplement 1. Abundance of ER resident proteins and chaperones in human cells and mouse brain. (a) The mean concentration of ER resident chaperones with the indicated ER retrieval sequence variant is plotted in the bar graph ([Itzhak et al., 2017]; [Itzhak et al., 2016]). (b) Combined cellular concentrations of ER resident proteins with canonical KDEL, RDEL, and HDEL retrieval sequences in HeLa cells and mouse brain. (c) The mean concentration of KDELR1, KDELR2, and KDELR3 in HeLa cells and mouse brain is plotted in the bar graph ([Itzhak et al., 2017]; [Itzhak et al., 2016]). (d) Cells and media collected from HeLa S3 cells expressing the xDEL variants (mScarlet-xDEL^sec) indicated in the figure were Western blotted for resident ER chaperones and KDELR. (e) A bar graph of xDEL secretion showing mean ± SEM (n = 3). (f). Endogenous ER chaperone secretion was measured by western blotting after challenge with different retrieval signals, and plotted as a bar graph showing mean ± SEM (n = 3). Figure 1—figure supplement 1—source data 1. Source data for analysis of ER protein levels in Figure 1—figure supplement 1a and c. Figure 1—figure supplement 1—source data 2. […] (a) Distribution of human KDELR1 and (b) KDELR2 was measured in COS-7 cells in the absence (-ligand) or presence of K/R/H/A/DDEL retrieval signals (K/R/H/A/DDEL^sec). […] The fraction of KDEL receptor localised to the Golgi was measured before (no ligand) and after challenge with different retrieval signals as indicated. […]
# PDI = experiment: ER chaperone secretion assay, PDI
# Source text: as §1, with “(b) Combined cellular concentrations of ER resident proteins with canonical KDEL, RDEL, and HDEL retrieval sequences in HeLa cells and mouse brain. (c) The mean concentration of KDELR1, KDELR2, and KDELR3 in HeLa cells and mouse brain is plotted in the bar graph ([Itzhak et al., 2017]; [Itzhak et al., 2016]). (d) Cells and media collected from HeLa S3 cells expressing the xDEL variants (mScarlet-xDEL^sec) indicated in the figure were Western blotted for resident ER chaperones and KDELR. (e) A bar graph of xDEL secretion showing mean ± SEM (n = 3). (f).” left out, “3).” for “3). Figure 1—figure supplement 1—source data 1. Source data for analysis of ER protein levels in Figure 1—figure supplement 1a and c. Figure 1—figure supplement 1—source data 2.”
# [1] = test system: BIP and PDI, ERP72 and ERP44; experiment: ER chaperone secretion assay, all four chaperones; details: HeLa S3 cells
# Source text: Figure 1. ER retrieval signal abundance and affinity are not correlated. (a) Sequence logos for ER resident proteins with C-terminal KDEL retrieval signals and variants thereof calculated using frequency or protein abundance ([Itzhak et al., 2017]; [Itzhak et al., 2016]). (b) Combined cellular concentrations of ER resident proteins with canonical KDEL, RDEL, and HDEL retrieval sequences in HeLa cells and mouse brain. (c) Competition binding assays for [^3H]-TAEHDEL and unlabelled TAEKDEL, TAERDEL, and TAEHDEL to the KDEL receptor. IC50 values for the competing peptides were used to calculate the apparent KDwith the Cheng-Prusoff equation ([Cheng and Prusoff, 1973]). (d) Endogenous KDEL receptor redistribution was measured in COS-7 cells in the absence (-ligand) or presence of K/R/H/A/DDEL (mScarlet-xDEL^sec). TGN46 was used as a Golgi marker. Scale bar is 10 µm. […] The individual data points for the fraction of KDEL receptor fluorescence in the Golgi are plotted on the upper axes with sample sizes and p values. […] Endogenous ER chaperone secretion was measured by western blotting after challenge with different retrieval signals, and plotted as a bar graph showing mean ± SEM (n = 3). […] (a) Distribution of human KDELR1 and (b) KDELR2 was measured in COS-7 cells in the absence (-ligand) or presence of K/R/H/A/DDEL retrieval signals (K/R/H/A/DDEL^sec). […]
substance,measurement,setting,value
"ADEL [pcDNA3.1 hGHss-mScarlet-H. sapiens BiP639-654K651A (ADEL^SEC), secreted mScarlet fusion with human BiP C-terminus, ADEL signal]",retention or secretion of the xDEL ligand (in words),HeLa S3 cells; HeLa S3 cells,mostly secreted
same,xDEL secretion (mScarlet),"HeLa S3 cells; mean, HeLa S3, 24 hr, cells and media Western blot densitometry",51.6
same,xDEL secretion (mScarlet),HeLa S3 cells; replicate 1,33.9
same,xDEL secretion (mScarlet),HeLa S3 cells; replicate 2,69.2
same,PDI secretion after challenge with retrieval signal,"PDI; mean, HeLa S3, 24 hr, Western blot densitometry",6.6
same,PDI secretion after challenge with retrieval signal,PDI; replicate 1,7.3
same,PDI secretion after challenge with retrieval signal,PDI; replicate 2,6.0
same,"effect on ER retention of BIP, PDI, ERP72 and ERP44 (in words)",[1],little effect on ER retention
